ChEMBL document CHEMBL5030558, “Optimization and Evaluation of Novel Antifungal Agents for the Treatment of Fungal Infection” (J Med Chem, 2021)
Values after ≈ are worked out from the molar mass of the structure shown.

Legend:
[1] = system: Candida albicans; experiment: Antifungal activity against Candida albicans ATCC SC5314 assessed as reduction in fungal growth incubated for 48 hrs by CLSI based broth microdilution method; assay type: functional
[2] = system: Cryptococcus neoformans; experiment: Antifungal activity against Cryptococcus neoformans H99 assessed as reduction in fungal growth incubated for 72 hrs by CLSI based broth microdilution method; assay type: functional
[3] = system: Nakaseomyces glabratus; experiment: Antifungal activity against Candida glabrata BG2 assessed as reduction in fungal growth incubated for 48 hrs by CLSI based broth microdilution method; assay type: functional
[4] = system: Aspergillus fumigatus; experiment: Antifungal activity against Aspergillus fumigatus AF293 assessed as reduction in fungal growth incubated for 48 hrs by CLSI based broth microdilution method; assay type: functional
[5] = Stability in human liver microsomes assessed as parent compound remaining after 30 mins; assay type: ADME, Microsome; conditions: read-out: Stability

CC(C)(NCCc1ccc(OCc2cccc(F)c2)cc1)C(N)=O.CS(=O)(=O)O
MIC [1]: > 128 µg/mL
MIC [2]: 128 µg/mL
MIC [3]: > 128 µg/mL
MIC [4]: > 128 µg/mL

Nc1ncccc1C(=O)NCCc1ccc(-c2ccc(Cl)c(Cl)c2)cc1
MIC [1]: 128 µg/mL (≈ 331 µM)
MIC [2]: 128 µg/mL (≈ 331 µM)
MIC [3]: 128 µg/mL (≈ 331 µM)
MIC [4]: 128 µg/mL (≈ 331 µM)

CC(C)(NCCc1ccc(OCc2cccc(C(F)(F)F)c2)cc1)C(N)=O.CS(=O)(=O)O
MIC [1]: 128 µg/mL
MIC [2]: 64 µg/mL
MIC [3]: 128 µg/mL
MIC [4]: 128 µg/mL

O=C(NCCc1ccc(-c2ccc(Cl)c(Cl)c2)cc1)c1cccnc1
MIC [1]: 128 µg/mL (≈ 345 µM)
MIC [2]: 128 µg/mL (≈ 345 µM)
MIC [3]: 128 µg/mL (≈ 345 µM)
MIC [4]: 128 µg/mL (≈ 345 µM)

CC(C)(NCCc1ccc(OCc2ccc(C(F)(F)F)cc2)cc1)C(N)=O.CS(=O)(=O)O
MIC [1]: 128 µg/mL
MIC [2]: 64 µg/mL
MIC [3]: 128 µg/mL
MIC [4]: 128 µg/mL

CC(NCCc1ccc(OCc2ccccc2F)cc1)C(N)=O.CS(=O)(=O)O (centres undefined)
MIC [1]: > 128 µg/mL
MIC [2]: 128 µg/mL
MIC [3]: > 128 µg/mL
MIC [4]: > 128 µg/mL

Cl.O=C(NCCc1ccc(-c2ccc(Cl)c(Cl)c2)cc1)C1CCCN1 (centres undefined)
MIC [1]: 16 µg/mL
MIC [2]: 8 µg/mL
MIC [3]: 16 µg/mL
MIC [4]: 16 µg/mL

CCC(N)C(=O)NCCc1ccc(-c2ccc(F)c(F)c2)cc1.Cl (racemic)
MIC [1]: 32 µg/mL
MIC [2]: 64 µg/mL
MIC [3]: 64 µg/mL
MIC [4]: 64 µg/mL

CC(NCCc1ccc(OCc2ccc(F)cc2)cc1)C(N)=O.CS(=O)(=O)O (racemic)
MIC [1]: > 128 µg/mL
MIC [2]: 128 µg/mL
MIC [3]: > 128 µg/mL
MIC [4]: > 128 µg/mL

CCC(NC)C(=O)NCCc1ccc(-c2ccc(C(F)(F)F)cc2)cc1.Cl (racemic)
MIC [1]: 32 µg/mL
MIC [2]: 16 µg/mL
MIC [3]: 64 µg/mL
MIC [4]: 64 µg/mL

CCC(N)C(=O)NCCc1ccc(-c2ccc(OC(F)(F)F)cc2)cc1.Cl (racemic)
MIC [1]: 16 µg/mL
MIC [2]: 16 µg/mL
MIC [3]: 16 µg/mL
MIC [4]: 32 µg/mL

CC(NCCc1ccc(OCc2ccc(Cl)cc2)cc1)C(N)=O.CS(=O)(=O)O (racemic)
MIC [1]: > 128 µg/mL
MIC [2]: 64 µg/mL
MIC [3]: > 128 µg/mL
MIC [4]: > 128 µg/mL

CCCCC(NC)C(=O)NCCc1ccc(-c2ccc(OC(F)(F)F)cc2)cc1.Cl (racemic)
MIC [1]: 16 µg/mL
MIC [2]: 4 µg/mL
MIC [3]: 16 µg/mL
MIC [4]: 8 µg/mL

CC(NCCc1ccc(Oc2ccc(Cl)c(Cl)c2)cc1)C(N)=O.CS(=O)(=O)O (racemic)
MIC [1]: 32 µg/mL
MIC [2]: 8 µg/mL
MIC [3]: 32 µg/mL
MIC [4]: 32 µg/mL

CC(NCCc1ccc(OCc2ccc(C(F)(F)F)cc2)cc1)C(N)=O.CS(=O)(=O)O (racemic)
MIC [1]: 128 µg/mL
MIC [2]: 32 µg/mL
MIC [3]: 128 µg/mL
MIC [4]: 64 µg/mL

CC(NCCc1ccc(OCc2cccc(Cl)c2)cc1)C(N)=O.CS(=O)(=O)O (racemic)
MIC [1]: 128 µg/mL
MIC [2]: 32 µg/mL
MIC [3]: > 128 µg/mL
MIC [4]: 128 µg/mL

CC(NCCc1ccc(-c2ccc(C(F)(F)F)cc2)cc1)C(N)=O.CS(=O)(=O)O (racemic)
MIC [1]: 128 µg/mL
MIC [2]: 32 µg/mL
MIC [3]: 64 µg/mL
MIC [4]: 32 µg/mL

Cl.O=C(NCCc1ccc(-c2ccc(C(F)(F)F)cc2)cc1)C1CCNC1 (racemic)
MIC [1]: 32 µg/mL
MIC [2]: 64 µg/mL
MIC [3]: 64 µg/mL
MIC [4]: 64 µg/mL

CCCCC(N)C(=O)NCCc1ccc(-c2ccc(OC(F)(F)F)cc2)cc1.Cl (racemic)
MIC [1]: 8 µg/mL
MIC [2]: 4 µg/mL
MIC [3]: 8 µg/mL
MIC [4]: 8 µg/mL

CC(NCCc1ccc(-c2ccc(Cl)c(Cl)c2)cc1)C(N)=O.CS(=O)(=O)O (racemic)
MIC [1]: 16 µg/mL
MIC [2]: 8 µg/mL
MIC [3]: 16 µg/mL
MIC [4]: 8 µg/mL

CC(NCCc1ccc(OCc2ccccc2C(F)(F)F)cc1)C(N)=O.CS(=O)(=O)O (racemic)
MIC [1]: > 128 µg/mL
MIC [2]: 64 µg/mL
MIC [3]: > 128 µg/mL
MIC [4]: 64 µg/mL

CCCC(N)C(=O)NCCc1ccc(Oc2ccc(Cl)c(Cl)c2)cc1.Cl (racemic)
MIC [1]: 16 µg/mL
MIC [2]: 8 µg/mL
MIC [3]: 16 µg/mL
MIC [4]: 16 µg/mL

CCC(N)C(=O)NCCc1ccc(-c2ccc(C(F)(F)F)cc2)cc1.Cl (racemic)
MIC [1]: 16 µg/mL
MIC [2]: 16 µg/mL
MIC [3]: 16 µg/mL
MIC [4]: 32 µg/mL

CCCC(N)C(=O)NCCc1ccc(Oc2ccc(C(F)(F)F)cc2)cc1.Cl (racemic)
MIC [1]: 32 µg/mL
MIC [2]: 16 µg/mL
MIC [3]: 32 µg/mL
MIC [4]: 32 µg/mL

CC(NCCc1ccc(OCc2ccc(Cl)cc2Cl)cc1)C(N)=O.CS(=O)(=O)O (racemic)
MIC [1]: 32 µg/mL
MIC [2]: 8 µg/mL
MIC [3]: 32 µg/mL
MIC [4]: 32 µg/mL

CCCCC(N)C(=O)NCCc1ccc(-c2ccc(F)c(F)c2)cc1.Cl (racemic)
MIC [1]: 16 µg/mL
MIC [2]: 16 µg/mL
MIC [3]: 32 µg/mL
MIC [4]: 32 µg/mL

CCCCC(NC)C(=O)NCCc1ccc(-c2ccc(C(F)(F)F)cc2)cc1.Cl (racemic)
MIC [1]: 16 µg/mL
MIC [2]: 4 µg/mL
MIC [3]: 16 µg/mL
MIC [4]: 16 µg/mL

CCCC(N)C(=O)NCCc1ccc(-c2ccc(F)c(F)c2)cc1.Cl (racemic)
remaining at 0.5 h [5]: > 85%
MIC [1]: 16 µg/mL
MIC [2]: 32 µg/mL
MIC [3]: 64 µg/mL
MIC [4]: 64 µg/mL

CCC(NC)C(=O)NCCc1ccc(-c2ccc(OC(F)(F)F)cc2)cc1.Cl (racemic)
MIC [1]: 32 µg/mL
MIC [2]: 16 µg/mL
MIC [3]: 32 µg/mL
MIC [4]: 32 µg/mL

CC(NCCc1ccc(-c2cccc(OC(F)(F)F)c2)cc1)C(N)=O.CS(=O)(=O)O (racemic)
MIC [1]: > 128 µg/mL
MIC [2]: 32 µg/mL
MIC [3]: 64 µg/mL
MIC [4]: 16 µg/mL

CN1CCCCC1C(=O)NCCc1ccc(-c2ccc(Cl)c(Cl)c2)cc1 (racemic)
MIC [1]: 128 µg/mL (≈ 327 µM)
MIC [2]: 8 µg/mL (≈ 20.4 µM)
MIC [3]: 16 µg/mL (≈ 40.9 µM)
MIC [4]: 16 µg/mL (≈ 40.9 µM)

CC(NCCc1ccc(Oc2ccc(C(F)(F)F)cc2)cc1)C(N)=O.CS(=O)(=O)O (racemic)
MIC [1]: 128 µg/mL
MIC [2]: 32 µg/mL
MIC [3]: 128 µg/mL
MIC [4]: 64 µg/mL

CCCC(NC)C(=O)NCCc1ccc(OCc2ccc(C(F)(F)F)cc2)cc1.Cl (racemic)
MIC [1]: 64 µg/mL
MIC [2]: 16 µg/mL
MIC [3]: 64 µg/mL
MIC [4]: 64 µg/mL

CCCC(NC)C(=O)NCCc1ccc(-c2ccc(OC(F)(F)F)cc2)cc1.Cl (racemic)
MIC [1]: 32 µg/mL
MIC [2]: 8 µg/mL
MIC [3]: 128 µg/mL
MIC [4]: 16 µg/mL

CC(NCCc1ccc(OCc2ccccc2Cl)cc1)C(N)=O.CS(=O)(=O)O (racemic)
MIC [1]: > 128 µg/mL
MIC [2]: 32 µg/mL
MIC [3]: > 128 µg/mL
MIC [4]: 128 µg/mL

CN1CCCC1C(=O)NCCc1ccc(-c2ccc(Cl)c(Cl)c2)cc1 (racemic)
MIC [1]: 128 µg/mL (≈ 339 µM)
MIC [2]: 8 µg/mL (≈ 21.2 µM)
MIC [3]: 16 µg/mL (≈ 42.4 µM)
MIC [4]: 16 µg/mL (≈ 42.4 µM)

CCCCC(N)C(=O)NCCc1ccc(-c2ccc(C(F)(F)F)cc2)cc1.Cl (racemic)
MIC [1]: 8 µg/mL
MIC [2]: 4 µg/mL
MIC [3]: 8 µg/mL
MIC [4]: 8 µg/mL

CCC(NC)C(=O)NCCc1ccc(-c2ccc(Cl)c(Cl)c2)cc1.Cl (racemic)
MIC [1]: 16 µg/mL
MIC [2]: 8 µg/mL
MIC [3]: 16 µg/mL
MIC [4]: 16 µg/mL

CCCC(N)C(=O)NCCc1ccc(OCc2ccc(Cl)c(Cl)c2)cc1.Cl (racemic)
MIC [1]: 8 µg/mL
MIC [2]: 8 µg/mL
MIC [3]: 16 µg/mL
MIC [4]: 16 µg/mL

CCC(N)C(=O)NCCc1ccc(-c2ccc(Cl)c(Cl)c2)cc1.Cl (racemic)
MIC [1]: 8 µg/mL
MIC [2]: 8 µg/mL
MIC [3]: 16 µg/mL
MIC [4]: 16 µg/mL

CC(=O)N1CCC(C(=O)NCCc2ccc(-c3ccc(C(F)(F)F)cc3)cc2)C1 (racemic)
MIC [1]: > 128 µg/mL
MIC [2]: > 128 µg/mL
MIC [3]: > 128 µg/mL
MIC [4]: > 128 µg/mL

Cl.O=C(NCCc1ccc(-c2ccc(C(F)(F)F)cc2)cc1)C1CCCN1 (racemic)
MIC [1]: 32 µg/mL
MIC [2]: 16 µg/mL
MIC [3]: 32 µg/mL
MIC [4]: 32 µg/mL

COc1cccc(COc2ccc(CCNC(C)C(N)=O)cc2)c1.CS(=O)(=O)O (racemic)
MIC [1]: 128 µg/mL
MIC [2]: 128 µg/mL
MIC [3]: > 128 µg/mL
MIC [4]: > 128 µg/mL

CC(NCCc1ccc(OCc2ccc(Cl)c(Cl)c2)cc1)C(N)=O.CS(=O)(=O)O (racemic)
MIC [1]: 32 µg/mL
MIC [2]: 8 µg/mL
MIC [3]: 32 µg/mL
MIC [4]: 32 µg/mL

CCCC(NC)C(=O)NCCc1ccc(OCc2ccc(Cl)c(Cl)c2)cc1.Cl (racemic)
MIC [1]: 32 µg/mL
MIC [2]: 8 µg/mL
MIC [3]: 32 µg/mL
MIC [4]: 32 µg/mL

CC(NCCc1ccc(-c2ccc(OC(F)(F)F)cc2)cc1)C(N)=O.CS(=O)(=O)O (racemic)
MIC [1]: 36 µg/mL
MIC [2]: 16 µg/mL
MIC [3]: > 128 µg/mL
MIC [4]: > 128 µg/mL

Cl.O=C(NCCc1ccc(-c2ccc(Cl)c(Cl)c2)cc1)C1CCCCN1 (racemic)
MIC [1]: 16 µg/mL
MIC [2]: 8 µg/mL
MIC [3]: 16 µg/mL
MIC [4]: 16 µg/mL

CC(=O)N1CCCC1C(=O)NCCc1ccc(-c2ccc(C(F)(F)F)cc2)cc1 (racemic)
MIC [1]: > 128 µg/mL
MIC [2]: > 128 µg/mL
MIC [3]: > 128 µg/mL
MIC [4]: > 128 µg/mL

CC(NCCc1ccc(OCc2cccc(F)c2)cc1)C(N)=O.CS(=O)(=O)O (racemic)
MIC [1]: > 128 µg/mL
MIC [2]: 64 µg/mL
MIC [3]: > 128 µg/mL
MIC [4]: > 128 µg/mL

CCCC(N)C(=O)NCCc1ccc(-c2ccc(C(F)(F)F)cc2)cc1.Cl (racemic)
MIC [1]: 8 µg/mL
MIC [2]: 8 µg/mL
MIC [3]: 16 µg/mL
MIC [4]: 16 µg/mL

CC(NCCc1ccc(OCc2cccc(C(F)(F)F)c2)cc1)C(N)=O.CS(=O)(=O)O (racemic)
MIC [1]: 128 µg/mL
MIC [2]: 32 µg/mL
MIC [3]: 128 µg/mL
MIC [4]: 64 µg/mL

CCCC(N)C(=O)NCCc1ccc(-c2ccc(OC(F)(F)F)cc2)cc1.Cl (racemic)
MIC [1]: 8 µg/mL
MIC [2]: 4 µg/mL
MIC [3]: 16 µg/mL
MIC [4]: 16 µg/mL
